Reference: patent US12258328B2, “6-membered heteroaryl-containing aminopyridine compounds as EGFR inhibitors” (YUHAN CORPORATION, priority 2021, dated 2025)
Where two headings read alike, the source gives them in different places.

Assays:
EGFR del19/T790M/C797S = EGFR del19/T790M/C797S (Homo sapiens, UniProt P00533, C797S/DEL746-750/T790M); test: Biochemical EGFR kinase assay (Lance Ultra TR-FRET), triple mutant del19/T790M/C797S
Procedure, shortened: (§1)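 Kinase activity is measured by TR-FRET phosphopeptide detection. Compounds span 0.003 μM to 10 μM; the 1 h reaction at room temperature is quenched with EDTA, then labelled antibody (2 nM) is incubated 60 min before reading.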

EGFR L858R/T790M/C797S = EGFR L858R/T790M/C797S (Homo sapiens, UniProt P00533, C797S/L858R/T790M); test: Biochemical EGFR kinase assay (Lance Ultra TR-FRET), triple mutant L858R/T790M/C797S
Chain of EGFR L858R/T790M/C797S (P00533 25-1210 T790M/C797S/L858R): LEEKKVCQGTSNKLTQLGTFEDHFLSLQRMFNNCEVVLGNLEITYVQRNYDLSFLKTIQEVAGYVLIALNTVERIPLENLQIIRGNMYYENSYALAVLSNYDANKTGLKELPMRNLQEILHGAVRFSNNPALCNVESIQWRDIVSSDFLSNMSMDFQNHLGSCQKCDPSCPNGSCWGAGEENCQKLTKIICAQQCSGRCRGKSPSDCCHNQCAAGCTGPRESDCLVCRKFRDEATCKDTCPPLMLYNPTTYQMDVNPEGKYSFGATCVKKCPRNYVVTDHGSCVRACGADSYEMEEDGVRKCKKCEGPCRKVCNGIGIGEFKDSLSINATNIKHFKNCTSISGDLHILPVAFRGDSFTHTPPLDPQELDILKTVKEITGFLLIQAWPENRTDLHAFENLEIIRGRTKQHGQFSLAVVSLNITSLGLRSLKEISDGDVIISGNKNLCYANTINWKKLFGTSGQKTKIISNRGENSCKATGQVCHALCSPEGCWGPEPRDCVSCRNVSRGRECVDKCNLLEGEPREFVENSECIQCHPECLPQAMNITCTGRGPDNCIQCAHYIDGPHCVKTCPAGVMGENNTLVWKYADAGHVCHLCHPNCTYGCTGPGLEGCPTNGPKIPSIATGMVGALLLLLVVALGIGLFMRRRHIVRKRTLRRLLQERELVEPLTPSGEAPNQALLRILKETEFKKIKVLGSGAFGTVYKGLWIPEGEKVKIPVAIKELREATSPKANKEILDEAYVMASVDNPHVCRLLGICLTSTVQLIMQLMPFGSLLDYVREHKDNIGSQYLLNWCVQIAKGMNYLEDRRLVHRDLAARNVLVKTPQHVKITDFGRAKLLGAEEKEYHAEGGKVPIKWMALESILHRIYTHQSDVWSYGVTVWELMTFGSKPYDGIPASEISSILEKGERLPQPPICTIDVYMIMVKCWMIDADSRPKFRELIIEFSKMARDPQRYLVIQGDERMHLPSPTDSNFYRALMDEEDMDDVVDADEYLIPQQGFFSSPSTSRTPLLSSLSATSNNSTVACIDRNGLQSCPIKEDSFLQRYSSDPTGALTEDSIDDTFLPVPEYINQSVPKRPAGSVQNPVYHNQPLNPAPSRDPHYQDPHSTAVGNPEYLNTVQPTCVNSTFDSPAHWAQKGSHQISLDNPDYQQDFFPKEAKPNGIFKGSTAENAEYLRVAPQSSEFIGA
Procedure, shortened: as §1

EGFR del19/C797S = EGFR del19/C797S (Homo sapiens, UniProt P00533, C797S/DEL746-750); test: Biochemical EGFR kinase assay (Lance Ultra TR-FRET), double mutant del19/C797S
Procedure, shortened: as §1

EGFR L858R/C797S = EGFR L858R/C797S (Homo sapiens, UniProt P00533, C797S/L858R); test: Biochemical EGFR kinase assay (Lance Ultra TR-FRET), double mutant L858R/C797S
Chain of EGFR L858R/C797S (P00533 25-1210 C797S/L858R): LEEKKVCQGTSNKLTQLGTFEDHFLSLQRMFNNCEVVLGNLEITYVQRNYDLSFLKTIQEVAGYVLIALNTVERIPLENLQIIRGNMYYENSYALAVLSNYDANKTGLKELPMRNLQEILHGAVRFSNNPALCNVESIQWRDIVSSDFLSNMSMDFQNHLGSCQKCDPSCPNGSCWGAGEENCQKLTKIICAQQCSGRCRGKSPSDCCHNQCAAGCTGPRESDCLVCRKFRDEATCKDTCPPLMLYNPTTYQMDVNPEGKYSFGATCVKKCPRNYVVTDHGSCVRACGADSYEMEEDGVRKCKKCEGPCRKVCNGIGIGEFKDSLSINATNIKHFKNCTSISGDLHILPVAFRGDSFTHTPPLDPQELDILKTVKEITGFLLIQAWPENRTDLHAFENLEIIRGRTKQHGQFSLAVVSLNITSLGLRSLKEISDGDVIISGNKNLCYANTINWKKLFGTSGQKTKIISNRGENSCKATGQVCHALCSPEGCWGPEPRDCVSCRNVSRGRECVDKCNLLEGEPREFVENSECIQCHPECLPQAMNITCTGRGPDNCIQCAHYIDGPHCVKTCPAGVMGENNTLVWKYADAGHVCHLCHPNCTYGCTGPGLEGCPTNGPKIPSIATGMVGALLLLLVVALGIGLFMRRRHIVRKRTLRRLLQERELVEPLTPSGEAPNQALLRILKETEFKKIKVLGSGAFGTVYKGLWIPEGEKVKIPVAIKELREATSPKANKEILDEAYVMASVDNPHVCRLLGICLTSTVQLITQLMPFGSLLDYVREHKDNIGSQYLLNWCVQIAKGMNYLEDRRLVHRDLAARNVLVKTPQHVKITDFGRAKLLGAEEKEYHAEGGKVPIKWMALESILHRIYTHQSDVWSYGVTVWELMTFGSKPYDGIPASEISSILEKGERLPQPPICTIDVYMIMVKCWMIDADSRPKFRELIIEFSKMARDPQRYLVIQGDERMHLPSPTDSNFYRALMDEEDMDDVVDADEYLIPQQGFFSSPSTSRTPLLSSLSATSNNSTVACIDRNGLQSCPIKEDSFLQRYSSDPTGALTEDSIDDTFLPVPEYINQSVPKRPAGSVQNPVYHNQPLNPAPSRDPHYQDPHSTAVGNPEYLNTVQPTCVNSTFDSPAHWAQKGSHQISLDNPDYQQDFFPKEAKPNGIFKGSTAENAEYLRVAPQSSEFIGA
Procedure, shortened: as §1

EGFR wildtype = EGFR wildtype (Homo sapiens, UniProt P00533); test: Biochemical EGFR kinase assay (Lance Ultra TR-FRET), wildtype
Chain of EGFR wildtype (P00533 25-1210): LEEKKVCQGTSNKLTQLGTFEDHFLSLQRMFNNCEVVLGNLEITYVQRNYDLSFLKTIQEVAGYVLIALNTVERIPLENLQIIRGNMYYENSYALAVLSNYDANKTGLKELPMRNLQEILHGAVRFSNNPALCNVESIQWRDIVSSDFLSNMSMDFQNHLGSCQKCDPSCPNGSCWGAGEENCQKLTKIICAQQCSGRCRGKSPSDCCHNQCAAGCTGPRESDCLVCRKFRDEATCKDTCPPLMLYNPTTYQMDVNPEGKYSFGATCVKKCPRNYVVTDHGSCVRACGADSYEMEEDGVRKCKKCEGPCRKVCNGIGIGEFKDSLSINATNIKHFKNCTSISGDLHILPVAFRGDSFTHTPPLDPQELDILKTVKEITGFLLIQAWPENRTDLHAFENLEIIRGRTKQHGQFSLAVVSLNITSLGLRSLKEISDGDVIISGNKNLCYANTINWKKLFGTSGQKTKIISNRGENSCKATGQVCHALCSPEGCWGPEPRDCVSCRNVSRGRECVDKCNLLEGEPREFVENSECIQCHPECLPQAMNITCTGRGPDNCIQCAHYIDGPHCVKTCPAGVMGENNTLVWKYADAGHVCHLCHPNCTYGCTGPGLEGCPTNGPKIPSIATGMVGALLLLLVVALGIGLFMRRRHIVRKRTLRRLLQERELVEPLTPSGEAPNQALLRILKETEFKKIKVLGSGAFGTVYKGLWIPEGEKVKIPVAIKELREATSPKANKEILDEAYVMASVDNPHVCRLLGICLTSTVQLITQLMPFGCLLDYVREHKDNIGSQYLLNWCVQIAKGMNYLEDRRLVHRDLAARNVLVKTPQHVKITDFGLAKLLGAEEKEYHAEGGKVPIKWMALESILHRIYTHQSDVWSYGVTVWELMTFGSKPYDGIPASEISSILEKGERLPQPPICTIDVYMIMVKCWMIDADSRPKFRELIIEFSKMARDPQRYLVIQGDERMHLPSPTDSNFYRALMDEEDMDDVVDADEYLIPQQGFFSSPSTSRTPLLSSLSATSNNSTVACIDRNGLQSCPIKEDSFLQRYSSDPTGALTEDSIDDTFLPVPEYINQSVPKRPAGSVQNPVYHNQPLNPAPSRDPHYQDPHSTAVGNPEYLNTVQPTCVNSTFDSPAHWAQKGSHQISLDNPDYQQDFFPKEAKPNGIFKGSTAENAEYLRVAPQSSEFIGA
Procedure, shortened: as §1

[1] = ATP at Km, read-out: IC50 del19/T790M/C797S, Km ATP
[2] = IC50 del19/T790M/C797S, 100 μM ATP
[3] = ATP at Km, read-out: IC50 L858R/T790M/C797S, Km ATP
[4] = IC50 L858R/T790M/C797S, 100 μM ATP
[5] = ATP at Km, read-out: IC50 del19/C797S, Km ATP
[6] = ATP at Km, read-out: IC50 L858R/C797S, Km ATP
[7] = ATP at Km, read-out: IC50 WT, Km ATP
[8] = IC50 del19/T790M/C797S (nM) 100 μM ATP, 100 μM ATP
[9] = Km ATP, read-out: IC50 del19/T790M/C797S (nM) Km ATP
[10] = IC50 L858R/T790M/C797S (nM) 100 μM ATP, 100 μM ATP
[11] = Km ATP, read-out: IC50 L858R/T790M/C797S (nM) Km ATP
[12] = IC50 del19/C797S (nM) 100 μM ATP, 100 μM ATP
[13] = Km ATP, read-out: IC50 del19/C797S (nM) Km ATP
[14] = IC50 L858R/C797S (nM) 100 μM ATP, 100 μM ATP
[15] = Km ATP, read-out: IC50 L858R/C797S (nM) Km ATP
[16] = IC50 WT (nM) 100 μM ATP, 100 μM ATP
[17] = Km ATP, read-out: IC50 WT (nM) Km ATP

Chain of EGFR del19/T790M/C797S (P00533 with tags, fused parts or gaps DEL746-750/T790M/C797S): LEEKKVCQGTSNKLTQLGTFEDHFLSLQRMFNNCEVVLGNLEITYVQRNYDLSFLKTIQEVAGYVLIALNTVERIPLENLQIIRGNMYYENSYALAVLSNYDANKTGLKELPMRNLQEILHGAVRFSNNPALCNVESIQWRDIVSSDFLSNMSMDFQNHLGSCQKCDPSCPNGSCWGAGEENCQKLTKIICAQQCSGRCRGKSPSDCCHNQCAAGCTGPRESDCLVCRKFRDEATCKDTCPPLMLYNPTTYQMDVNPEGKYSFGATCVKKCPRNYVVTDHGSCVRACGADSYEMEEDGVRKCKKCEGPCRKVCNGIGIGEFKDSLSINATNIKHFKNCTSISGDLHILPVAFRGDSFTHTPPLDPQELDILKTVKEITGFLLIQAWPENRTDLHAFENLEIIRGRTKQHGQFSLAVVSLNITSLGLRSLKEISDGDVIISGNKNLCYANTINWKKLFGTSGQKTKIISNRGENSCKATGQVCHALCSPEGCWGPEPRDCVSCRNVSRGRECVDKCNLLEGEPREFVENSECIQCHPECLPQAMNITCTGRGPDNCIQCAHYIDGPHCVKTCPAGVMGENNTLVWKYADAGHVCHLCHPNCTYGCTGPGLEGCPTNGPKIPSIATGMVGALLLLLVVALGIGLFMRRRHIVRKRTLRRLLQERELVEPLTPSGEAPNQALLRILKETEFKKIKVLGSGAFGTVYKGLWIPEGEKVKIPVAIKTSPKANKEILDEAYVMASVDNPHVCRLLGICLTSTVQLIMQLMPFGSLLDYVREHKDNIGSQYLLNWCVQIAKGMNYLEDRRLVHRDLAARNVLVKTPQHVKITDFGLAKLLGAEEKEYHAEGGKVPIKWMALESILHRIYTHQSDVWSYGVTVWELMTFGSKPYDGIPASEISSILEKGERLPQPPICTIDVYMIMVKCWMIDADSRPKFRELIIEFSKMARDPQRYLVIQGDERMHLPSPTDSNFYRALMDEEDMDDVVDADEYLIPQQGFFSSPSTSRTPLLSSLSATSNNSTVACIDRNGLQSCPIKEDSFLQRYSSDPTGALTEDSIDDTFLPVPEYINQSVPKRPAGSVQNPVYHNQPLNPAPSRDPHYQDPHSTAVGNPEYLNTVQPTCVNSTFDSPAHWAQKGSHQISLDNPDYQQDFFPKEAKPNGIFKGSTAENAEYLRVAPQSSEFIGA

## CN1CCN(C(=O)c2ccc(-c3cnc(Nc4ccnc(-c5cnn(S(=O)(=O)C6CC6)c5)n4)cc3N[C@H]3CC[C@@H](C(C)(C)O)CC3)nc2)CC1 [Example 203, (6′-((2-(1-(Cyclopropylsulfonyl)-1H-pyrazol-4-yl)pyrimidin-4-yl)amino)-4′-(((1s,4s)-4-(2-hydroxypropan-2-yl)cyclohexyl)amino)-[2,3′-bipyridin]-5-yl)(4-methylpiperazin-1-yl)methanone]
EGFR del19/T790M/C797S; [1]
  IC50: 0.4 nM
EGFR del19/T790M/C797S; [2]
  IC50: 0.7 nM
EGFR L858R/T790M/C797S; [3]
  IC50: 0.2 nM
EGFR L858R/T790M/C797S; [4]
  IC50: 0.3 nM
EGFR del19/C797S; [5]
  IC50: 0.1 nM
EGFR del19/C797S; IC50 del19/C797S, 100 μM ATP
  IC50: 0.3 nM
EGFR L858R/C797S; [6]
  IC50: 0.1 nM
EGFR L858R/C797S; IC50 L858R/C797S, 100 μM ATP
  IC50: 0.8 nM
EGFR wildtype; [7]
  IC50: 0.3 nM
EGFR wildtype; IC50 WT, 100 μM ATP
  IC50: 395 nM

## CN1CCN(C(=O)c2ccc(-c3cnc(Nc4ccnc(-c5cnn(S(=O)(=O)C6CC6)c5)n4)cc3N[C@H]3CC[C@@H](CN(C)C)CC3)nc2)CC1 [Example 204, (6′-((2-(1-(Cyclopropylsulfonyl)-1H-pyrazol-4-yl)pyrimidin-4-yl)amino)-4′-(((1s,4s)-4-((dimethylamino)methyl)cyclohexyl)amino)-[2,3′-bipyridin]-5-yl)(4-methylpiperazin-1-yl)methanone]
EGFR del19/T790M/C797S; [1]
  IC50: 0.1 nM
EGFR del19/T790M/C797S; [2]
  IC50: 0.1 nM
EGFR L858R/T790M/C797S; [3]
  IC50: 0.1 nM
EGFR L858R/T790M/C797S; [4]
  IC50: 0.1 nM
EGFR del19/C797S; [5]
  IC50: 0.2 nM
EGFR del19/C797S; IC50 del19/C797S, 100 μM ATP
  IC50: 0.2 nM
EGFR L858R/C797S; [6]
  IC50: 0.1 nM
EGFR L858R/C797S; IC50 L858R/C797S, 100 μM ATP
  IC50: 1 nM
EGFR wildtype; [7]
  IC50: 0.4 nM
EGFR wildtype; IC50 WT, 100 μM ATP
  IC50: 124 nM

## C[C@]1(O)CC[C@@H](Nc2cc(Nc3ccnc(-c4cnn(S(=O)(=O)C5CC5)c4)n3)ncc2-c2ccc(N3CCC(O)CC3)cn2)CC1 [Example 49, 1-(6′-((2-(1-(Cyclopropylsulfonyl)-1H-pyrazol-4-yl)pyrimidin-4-yl)amino)-4′-(((1s,4s)-4-hydroxy-4-methylcyclohexyl)amino)-[2,3′-bipyridin]-5-yl) piperidin-4-ol]
EGFR del19/T790M/C797S; [8]
  IC50: 0.3 nM
EGFR del19/T790M/C797S; [9]
  IC50: 0.3 nM
EGFR L858R/T790M/C797S; [10]
  IC50: 0.3 nM
EGFR L858R/T790M/C797S; [11]
  IC50: 0.1 nM
EGFR del19/C797S; [12]
  IC50: 0.8 nM
EGFR del19/C797S; [13]
  IC50: 0.5 nM
EGFR L858R/C797S; [14]
  IC50: 2.4 nM
EGFR L858R/C797S; [15]
  IC50: 0.3 nM
EGFR wildtype; [16]
  IC50: 294 nM
EGFR wildtype; [17]
  IC50: 0.5 nM

## O=S(=O)(C1CC1)n1cc(-c2nccc(Nc3cc(N[C@H]4CC[C@@H](CO)CC4)c(-c4ccc(N5CCCC5)cn4)cn3)n2)cn1 [Example 81, ((1s,4s)-4-((6′-((2-(1-(Cyclopropylsulfonyl)-1H-pyrazol-4-yl)pyrimidin-4-yl)amino)-5-(pyrrolidin-1-yl)-[2,3′-bipyridin]-4′-yl)amino)cyclohexyl)methanol]
EGFR del19/T790M/C797S; [8]
  IC50: 3.1 nM
EGFR del19/T790M/C797S; [9]
  IC50: 2.4 nM
EGFR L858R/T790M/C797S; [10]
  IC50: 6 nM
EGFR L858R/T790M/C797S; [11]
  IC50: 2 nM
EGFR del19/C797S; [12]
  IC50: 19 nM
EGFR del19/C797S; [13]
  IC50: 4 nM
EGFR L858R/C797S; [14]
  IC50: 13 nM
EGFR L858R/C797S; [15]
  IC50: 3.3 nM
EGFR wildtype; [16]
  IC50: 3650 nM
EGFR wildtype; [17]
  IC50: 11.7 nM

## CN(C)C[C@H]1CC[C@@H](Nc2cc(Nc3ccnc(-c4cnn(S(=O)(=O)C5CC5)c4)n3)ncc2-c2ccc(N3CCC(F)(F)CC3)nn2)CC1 [Example 73, N^2-(2-(1-(Cyclopropylsulfonyl)-1H-pyrazol-4-yl)pyrimidin-4-yl)-5-(6-(4,4-difluoropiperidin-1-yl)pyridazin-3-yl)-N^4-((1s,4s)-4-((dimethylamino)methyl)cyclohexyl)pyridine-2,4-diamine]
EGFR del19/T790M/C797S; [8]
  IC50: 0.7 nM
EGFR del19/T790M/C797S; [9]
  IC50: 0.4 nM
EGFR L858R/T790M/C797S; [10]
  IC50: 0.5 nM
EGFR L858R/T790M/C797S; [11]
  IC50: 0.2 nM
EGFR del19/C797S; [12]
  IC50: 0.5 nM
EGFR del19/C797S; [13]
  IC50: 0.4 nM
EGFR L858R/C797S; [14]
  IC50: 16.3 nM
EGFR wildtype; [16]
  IC50: 562 nM
EGFR wildtype; [17]
  IC50: 2.2 nM

## CN(C)C[C@H]1CC[C@@H](Nc2cc(Nc3ccnc(-c4cnn(S(=O)(=O)C5CC5)c4)n3)ncc2-c2ccc(S(C)(=O)=O)cn2)CC1 [Example 159, N^6′-(2-(1-(Cyclopropylsulfonyl)-1H-pyrazol-4-yl)pyrimidin-4-yl)-N^4′-((1s,4s)-4-((dimethylamino)methyl)cyclohexyl)-5-(methylsulfonyl)-[2,3′-bipyridine]-4′,6′-diamine]
EGFR del19/T790M/C797S; [2]
  IC50: 0.1 nM
EGFR L858R/T790M/C797S; [4]
  IC50: 0.1 nM
EGFR del19/C797S; IC50 del19/C797S, 100 μM ATP
  IC50: 0.2 nM
EGFR L858R/C797S; IC50 L858R/C797S, 100 μM ATP
  IC50: 1.2 nM
EGFR wildtype; IC50 WT, 100 μM ATP
  IC50: 323 nM
